Tests used:
human 5-HT4b receptor = molecular target: T1, human 5-HT4b receptor (Homo sapiens, UniProt Q13639); assay: Test Example 4: Serotonin 4 (5-HT4) receptor agonist activity assay, cAMP HTRF in CHO cells (Table 100); type: cell-based; conditions: mean value; for Emax: CHO, 0.25 h, intrinsic activity, maximal activity of 5-HT defined as 100%, read-out: IA (%); for EC50: concentration showing 50% of IA
T1 construct: expressed in transfected cells; host or cells: CHO cells (G418 selection)
How it was run: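 Read-out is HTRF cAMP (time-resolved fluorescence 620/665 nm after 1 h RT with cAMP-cryptate and cAMP-d2), from recombinant CHO cells bearing human 5-HT4b treated with compound 15 min at 31° C. in Hanks/HEPES buffer pH 7.4. IA (%) scaled to peak 5-HT effect over 10^−11–10^−7 M; EC50 is concentration giving half that IA.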

[1] = molecular target: T2, Human 5-HT4 receptor (5-HT4b) (Homo sapiens, UniProt Q13639); assay: Test Example 3: Human 5-HT4 receptor binding assay, membranes of CHO-K1 cells stably expressing 5-HT4b receptors (Table 99); conditions: mean value of each group
T2 construct: expressed in transfected cells; membrane preparation
How it was run: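 Radioligand displacement: [3H]-GR113808 (0.1 nM) bound to CHO-K1 5-HT4b membranes for 30 min at 37 °C in Hepes buffer (50 mM, pH 7.4). Specific binding is total minus that with 30 μM serotonin; filter-bound radioactivity counted, IC50 derived from percent inhibition.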

T1 sequence (Q13639 whole entry): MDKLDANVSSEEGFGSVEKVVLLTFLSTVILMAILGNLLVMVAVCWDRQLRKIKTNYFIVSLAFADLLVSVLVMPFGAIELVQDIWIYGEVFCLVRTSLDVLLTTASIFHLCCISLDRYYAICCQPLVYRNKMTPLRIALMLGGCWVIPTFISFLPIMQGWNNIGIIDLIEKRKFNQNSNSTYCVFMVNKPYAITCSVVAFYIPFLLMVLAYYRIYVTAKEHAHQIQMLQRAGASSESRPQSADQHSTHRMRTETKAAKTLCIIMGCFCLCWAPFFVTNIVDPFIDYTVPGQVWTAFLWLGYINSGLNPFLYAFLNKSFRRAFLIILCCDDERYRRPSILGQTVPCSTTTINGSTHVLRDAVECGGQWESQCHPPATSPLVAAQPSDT
T2 sequence (Q13639 whole entry): as above

Structure (SMILES) | Emax (human 5-HT4b receptor) | EC50 (human 5-HT4b receptor) | IC50 [1]
CC(C)c1nn(-c2noc(C[C@@H]3CCN(C4CCN(S(C)(=O)=O)CC4)C3)n2)c2c(F)cccc12 [Example 508, 7-fluoro-1-[5-({(3S)-1-[1-(methylsulfonyl)piperidin-4-yl]pyrrolidin-3-yl}methyl)-1,2,4-oxadiazol-3-yl]-3-(propan-2-yl)-1H-indazole] | 54% | 3.7 nM | < 20 nM
CC(=O)N1CCC[C@H]1CN1CC[C@@H](Cc2nc(-n3nc(C(C)C)c4cccc(F)c43)no2)C1 [Example 509, 1-[(2S)-2-{[(3S)-3-({3-[7-fluoro-3-(propan-2-yl)-1H-indazol-1-yl]-1,2,4-oxadiazol-5-yl}methyl)pyrrolidin-1-yl]methyl)pyrrolidin-1-yl]ethanone] | 56% | 16.3 nM | 27.4 nM
CCc1nn(-c2noc(C3CCN(C4(C)CCN(C(=O)N(C)C)CC4)CC3)n2)c2c(F)cccc12 [Example 493, 4-[3-(3-ethyl-7-fluoro-1H-indazol-1-yl)-1,2,4-oxadiazol-5-yl]-N,N,4′-trimethyl-1,4′-bipiperidine-1′-carboxamide] | 75% | 1.5 nM | < 20 nM
CC(C)c1nn(-c2noc(C[C@@H]3CCN(CC4CN(S(C)(=O)=O)C4)C3)n2)c2c(F)cccc12 [Example 514, 7-fluoro-1-(5-{[(3S)-1-{[1-(methylsulfonyl)azetidin-3-yl]methyl}pyrrolidin-3-yl]methyl}-1,2,4-oxadiazol-3-yl)-3-(propan-2-yl)-1H-indazole] | 70% | 12 nM | < 20 nM
CC(C)c1nn(-c2noc(C3CCN(C[C@@H]4CCN(S(C)(=O)=O)C4)CC3)n2)c2c(F)cccc12 [Example 585, 7-fluoro-1-[5-(1-{[(3S)-1-(methylsulfonyl)pyrrolidin-3-yl]methyl}piperidin-4-yl)-1,2,4-oxadiazol-3-yl]-3-(propan-2-yl)-1H-indazole] | 109% | 2.4 nM | < 20 nM
CC(C)c1nn(-c2noc(C[C@H]3CCN(C[C@H]4CCCN4C(=O)CO)C3)n2)c2c(F)cccc12 [Example 541, 1-[(2R)-2-{[(3R)-3-({3-[7-fluoro-3-(propan-2-yl)-1H-indazol-1-yl]-1,2,4-oxadiazol-5-yl}methyl)pyrrolidin-1-yl]methyl}pyrrolidin-1-yl]-2-hydroxyethanone] | 79% | 9 nM | 35.8 nM
CC(=O)N1CCC(N2C3CCC2CC(c2nc(-n4nc(C(C)C)c5cccc(F)c54)no2)C3)CC1 (stereo not drawn) [Example 419, 1-{4-[3-{3-[7-fluoro-3-(propan-2-yl)-1H-indazol-1-yl]-1,2,4-oxadiazol-5-yl}-8-azabicyclo[3.2.1]oct-8-yl]piperidin-1-yl}ethanone] | 110% | 10.4 nM | 63.8 nM
CC(C)c1nn(-c2noc(C3CCN(C4CCN(C(=O)CO)CC4(C)C)CC3)n2)c2c(F)cccc12 (stereo not drawn) [Example 531, 1-(4-{3-[7-fluoro-3-(propan-2-yl)-1H-indazol-1-yl]-1,2,4-oxadiazol-5-yl}-3′,3′-dimethyl-1,4′-bipiperidin-1′-yl)-2-hydroxyethanone] | 95% | 11.4 nM | < 20 nM
CC(C)c1nn(-c2noc(C[C@H]3CCN(C[C@H]4CCN(C(=O)CO)C4)C3)n2)c2c(F)cccc12 [Example 544, 1-[(3R)-3-{[(3R)-3-({3-[7-fluoro-3-(propan-2-yl)-1H-indazol-1-yl]-1,2,4-oxadiazol-5-yl}methyl)pyrrolidin-1-yl]methyl}pyrrolidin-1-yl]-2-hydroxyethanone] | 58% | 4.7 nM | < 20 nM
CC(=O)N1CC[C@@H](CN2CC[C@@H](Cc3nc(-n4nc(C(C)C)c5cccc(F)c54)no3)C2)C1 [Example 515] | 70% | 8.5 nM | < 20 nM
CC(C)c1nn(-c2noc(C[C@@H]3CCN(C[C@@H]4CCCN4C(=O)CO)C3)n2)c2c(F)cccc12 [Example 546, 1-[(2S)-2-{[(3S)-3-({3-[7-fluoro-3-(propan-2-yl)-1H-indazol-1-yl]-1,2,4-oxadiazol-5-yl}methyl)pyrrolidin-1-yl]methyl}pyrrolidin-1-yl]-2-hydroxyethanone] | 63% | 20.1 nM | < 20 nM
CC(C)c1nn(-c2noc(C[C@@H]3CCN(C[C@H]4CCCN4S(C)(=O)=O)C3)n2)c2c(F)cccc12 [Example 512, 7-fluoro-1-(5-{[(3S)-1-{[(2R)-1-(methylsulfonyl)pyrrolidin-2-yl]methyl}pyrrolidin-3-yl]methyl}-1,2,4-oxadiazol-3-yl)-3-(propan-2-yl)-1H-indazole] | 30% | 4.3 nM | < 20 nM
CC(=O)N1CCC(N2CCC(F)(c3nc(-n4nc(C(C)C)c5cccc(F)c54)no3)CC2)CC1 [Example 561, 1-(4-fluoro-4-{3-[7-fluoro-3-(propan-2-yl)-1H-indazol-1-yl]-1,2,4-oxadiazol-5-yl}-1,4′-bipiperidin-1′-yl)ethanone] | 109% | 8.9 nM | 33.3 nM
CC(C)c1nn(-c2noc(C[C@H]3CCN(C[C@H]4CCCN4S(C)(=O)=O)C3)n2)c2c(F)cccc12 [Example 500, 7-fluoro-1-(5-{[(3R)-1-{[(2R)-1-(methylsulfonyl)pyrrolidin-2-yl]methyl}pyrrolidin-3-yl]methyl}-1,2,4-oxadiazol-3-yl)-3-(propan-2-yl)-1H-indazole] | 90% | 14.4 nM | < 20 nM
COCC(=O)N1CCC(C)(N2CCC(c3nc(-n4nc(C(C)C)c5cccc(F)c54)no3)CC2)CC1 [Example 490, 1-(4-{3-[7-fluoro-3-(propan-2-yl)-1H-indazol-1-yl]-1,2,4-oxadiazol-5-yl}-4′-methyl-1,4′-bipiperidin-1′-yl)-2-methoxyethanone] | 111% | 1.6 nM | < 20 nM
CCC(C)c1nn(-c2noc(C3CCN(C4CCN(C(=O)CO)CC4)CC3)n2)c2c(F)cccc12 (stereo not drawn) [Example 528, 1-(4-{3-[3-(butan-2-yl)-7-fluoro-1H-indazol-1-yl]-1,2,4-oxadiazol-5-yl}-1,4′-bipiperidin-1′-yl)-2-hydroxyethanone] | 121% | 17.3 nM | < 20 nM
CC(C)c1nn(-c2noc(C3CCN(C4C5CCC4CN(C(=O)CO)C5)CC3)n2)c2c(F)cccc12 (stereo not drawn) [Example 534, 1-[(8-anti)-8-(4-(3-[7-fluoro-3-(propan-2-yl)-1H-indazol-1-yl]-1,2,4-oxadiazol-5-yl}piperidin-1-yl)-3-azabicyclo[3.2.1]oct-3-yl]-2-hydroxyethanone] | 104% | 5.7 nM | 42.4 nM
CCc1nn(-c2noc(C3CCN(C4(C)CCN(S(C)(=O)=O)CC4)CC3)n2)c2c(F)cccc12 [Example 492, 4-[3-(3-ethyl-7-fluoro-1H-indazol-1-yl)-1,2,4-oxadiazol-5-yl]-4′-methyl-1′-(methylsulfonyl)-1,4′-bipiperidine] | 78% | 2.9 nM | < 20 nM
CC(C)c1nn(-c2noc([C@H]3CC[C@@H](NC4CCN(S(C)(=O)=O)C4)CC3)n2)c2c(F)cccc12 (relative stereo) [Example 616, N-(cis-4-{3-[7-fluoro-3-(propan-2-yl)-1H-indazol-1-yl]-1,2,4-oxadiazol-5-yl}cyclohexyl)-1-(methylsulfonyl)pyrrolidin-3-amine] | 105% | 13 nM | < 20 nM
CC(C)c1nn(-c2noc(C[C@H]3CCN(C4CCN(C(=O)CO)CC4)C3)n2)c2c(F)cccc12 [Example 539, 1-{4-[(3R)-3-({3-[7-fluoro-3-(propan-2-yl)-1H-indazol-1-yl]-1,2,4-oxadiazol-5-yl}methyl)pyrrolidin-1-yl]piperidin-1-yl}-2-hydroxyethanone] | 75% | 2.6 nM | < 20 nM
CC(=O)N1CC(CN2CC[C@@H](Cc3nc(-n4nc(C(C)C)c5cccc(F)c54)no3)C2)C1 [Example 513, 1-(3-{[(3S)-3-({3-[7-fluoro-3-(propan-2-yl)-1H-indazol-1-yl]-1,2,4-oxadiazol-5-yl}methyl)pyrrolidin-1-yl]methyl}azetidin-1-yl)ethanone] | 81% | 10.2 nM | < 20 nM
O=C(CO)N1CCC(N2CCC(c3nc(-n4nc(C5CC5)c5cccc(F)c54)no3)CC2)CC1 [Example 523, 1-{4-[3-(3-cyclopropyl-7-fluoro-1H-indazol-1-yl)-1,2,4-oxadiazol-5-yl]-1,4′-bipiperidin-1′-yl}-2-hydroxyethanone] | 24% | 2.9 nM | < 20 nM
CCc1nn(-c2noc(C3CCN(C4(C)CCN(C(=O)CO)CC4)CC3)n2)c2c(F)cccc12 [Example 538, 1-{4-[3-(3-ethyl-7-fluoro-1H-indazol-1-yl)-1,2,4-oxadiazol-5-yl]-4′-methyl-1,4′-bipiperidin-1′-yl}-2-hydroxyethanone] | 76% | 2.4 nM | < 20 nM
CCCc1nn(-c2noc(C3CCN(C4CCN(C(=O)CO)CC4)CC3)n2)c2c(F)cccc12 [Example 524, 1-{4-[3-(7-fluoro-3-propyl-1H-indazol-1-yl)-1,2,4-oxadiazol-5-yl]-1,4′-bipiperidin-1′-yl}-2-hydroxyethanone] | 84% | 4.3 nM | < 20 nM

From patent publication US20140057895A1, “INDAZOLE- AND PYRROLOPYRIDINE-DERIVATIVE AND PHARMACEUTICAL USE THEREOF” (priority 2011, published 2014)
